Data set [1] has as its target Glutamate receptor ionotropic, NMDA 2B (Mus musculus) (UniProt Q01097). The data set is described as follows: Antagonist activity at NMDA receptor GluN2B subunit in FVB mouse CA1 pyramidal neurons assessed as decrease in EPSC amplitude at holding potential of -60 mV at 6 uM measured at 5 mins by patch clamp electrophysiological assay in presence of Mg2+ free ACSF containing CNQX, glycine, bicuculline relative to control. Set-up: scale not given: the % may be the effect or the level left. It counts as functional, cell-based. Conditions: Pyramidal neuron. Background: Patch clamp records ionic current or voltage across a cell membrane.

Data set [2] deals with Glutamate NMDA receptor; Grin1/Grin2b (Rattus norvegicus, UniProt P35439+Q00960). The data set is described as follows: Inhibition of rat NMDA receptor NR1F/NR2B subunit expressed in Xenopus laevis oocytes after 2 days by two-electrode voltage-clamp electrophysiological assay. It counts as cell-based, Oocyte. A general note: Two-electrode voltage clamp holds a large cell at a set potential and records current.

The target in data set [3] is Glutamate receptor ionotropic, NMDA 2B (Rattus norvegicus, UniProt Q00960). The data set is described as follows: Displacement of [3H]ifenprodil from NMDA receptor GluN2B subunit in Wistar rat cerebral cortex after 120 mins. It counts as tissue-based. For orientation: Loss of bound radioactivity is the signal in a displacement assay; it reports binding, not function.
Sequence of Glutamate receptor ionotropic, NMDA 2B (Q00960 whole entry): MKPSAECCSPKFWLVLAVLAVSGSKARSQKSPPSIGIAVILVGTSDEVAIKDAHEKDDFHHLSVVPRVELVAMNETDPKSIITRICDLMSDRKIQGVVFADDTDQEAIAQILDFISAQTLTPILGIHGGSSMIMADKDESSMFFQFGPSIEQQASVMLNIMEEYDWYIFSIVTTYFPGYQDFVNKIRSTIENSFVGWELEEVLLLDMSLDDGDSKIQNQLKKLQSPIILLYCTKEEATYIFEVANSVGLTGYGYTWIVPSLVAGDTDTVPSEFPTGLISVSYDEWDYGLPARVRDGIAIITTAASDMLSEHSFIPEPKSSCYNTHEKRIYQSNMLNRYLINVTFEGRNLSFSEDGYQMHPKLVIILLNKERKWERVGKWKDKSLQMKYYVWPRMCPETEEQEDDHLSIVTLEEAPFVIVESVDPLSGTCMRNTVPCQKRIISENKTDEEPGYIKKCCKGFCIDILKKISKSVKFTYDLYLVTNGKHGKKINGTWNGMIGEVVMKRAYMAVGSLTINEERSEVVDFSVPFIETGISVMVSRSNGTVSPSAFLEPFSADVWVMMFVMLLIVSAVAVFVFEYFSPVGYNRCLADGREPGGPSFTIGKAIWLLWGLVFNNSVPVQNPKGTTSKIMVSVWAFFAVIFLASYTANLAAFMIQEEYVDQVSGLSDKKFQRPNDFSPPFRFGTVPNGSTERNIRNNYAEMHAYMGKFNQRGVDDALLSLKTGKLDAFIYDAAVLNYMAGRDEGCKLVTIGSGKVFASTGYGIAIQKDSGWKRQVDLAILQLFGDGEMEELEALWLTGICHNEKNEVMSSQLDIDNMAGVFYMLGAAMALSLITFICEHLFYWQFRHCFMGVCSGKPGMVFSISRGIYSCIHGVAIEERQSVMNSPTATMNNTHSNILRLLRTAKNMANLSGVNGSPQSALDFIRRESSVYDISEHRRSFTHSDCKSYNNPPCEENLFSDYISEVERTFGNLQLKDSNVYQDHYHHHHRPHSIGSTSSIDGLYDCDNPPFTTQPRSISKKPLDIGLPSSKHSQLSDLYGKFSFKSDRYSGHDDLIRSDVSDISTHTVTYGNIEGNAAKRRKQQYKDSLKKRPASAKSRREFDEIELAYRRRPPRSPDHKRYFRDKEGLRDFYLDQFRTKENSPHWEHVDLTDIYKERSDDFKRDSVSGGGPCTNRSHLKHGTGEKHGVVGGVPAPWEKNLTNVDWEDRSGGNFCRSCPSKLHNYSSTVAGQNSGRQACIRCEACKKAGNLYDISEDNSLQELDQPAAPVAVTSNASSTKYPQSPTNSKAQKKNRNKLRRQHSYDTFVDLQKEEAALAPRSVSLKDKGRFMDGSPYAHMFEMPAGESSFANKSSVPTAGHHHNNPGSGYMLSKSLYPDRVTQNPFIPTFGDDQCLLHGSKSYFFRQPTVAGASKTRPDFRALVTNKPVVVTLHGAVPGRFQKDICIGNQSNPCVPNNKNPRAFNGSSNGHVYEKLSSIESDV

The nature of data set [4]: Dissociation constant, pKa of the compound. It counts as physicochemical.
Data set [5] has as its target Glutamate receptor ionotropic, NMDA 2B (Rattus norvegicus) (UniProt Q00960). Nature of the data set: Displacement of [3H]ifenprodil from NMDA receptor GluN2B subunit in Wistar rat cerebral cortex at 10 uM after 120 mins. It counts as tissue-based.
In data set [6] the target is Glutamate receptor ionotropic, NMDA 2B (Mus musculus) (UniProt Q01097). Nature of the data set: Antagonist activity at NMDA receptor GluN2B subunit in FVB mouse CA1 pyramidal neurons assessed as decrease in EPSC amplitude at holding potential of -60 mV at 50 uM measured at 5 mins by patch clamp electrophysiological assay in presence of Mg2+ free ACSF containing CNQX, glycine, bicuculline relative to control. The data set is classed as functional, cell-based. Set-up: scale not given: the % may be the effect or the level left. Conditions: Pyramidal neuron.
Sequence of Glutamate receptor ionotropic, NMDA 2B (Mus musculus) (Q01097 whole entry): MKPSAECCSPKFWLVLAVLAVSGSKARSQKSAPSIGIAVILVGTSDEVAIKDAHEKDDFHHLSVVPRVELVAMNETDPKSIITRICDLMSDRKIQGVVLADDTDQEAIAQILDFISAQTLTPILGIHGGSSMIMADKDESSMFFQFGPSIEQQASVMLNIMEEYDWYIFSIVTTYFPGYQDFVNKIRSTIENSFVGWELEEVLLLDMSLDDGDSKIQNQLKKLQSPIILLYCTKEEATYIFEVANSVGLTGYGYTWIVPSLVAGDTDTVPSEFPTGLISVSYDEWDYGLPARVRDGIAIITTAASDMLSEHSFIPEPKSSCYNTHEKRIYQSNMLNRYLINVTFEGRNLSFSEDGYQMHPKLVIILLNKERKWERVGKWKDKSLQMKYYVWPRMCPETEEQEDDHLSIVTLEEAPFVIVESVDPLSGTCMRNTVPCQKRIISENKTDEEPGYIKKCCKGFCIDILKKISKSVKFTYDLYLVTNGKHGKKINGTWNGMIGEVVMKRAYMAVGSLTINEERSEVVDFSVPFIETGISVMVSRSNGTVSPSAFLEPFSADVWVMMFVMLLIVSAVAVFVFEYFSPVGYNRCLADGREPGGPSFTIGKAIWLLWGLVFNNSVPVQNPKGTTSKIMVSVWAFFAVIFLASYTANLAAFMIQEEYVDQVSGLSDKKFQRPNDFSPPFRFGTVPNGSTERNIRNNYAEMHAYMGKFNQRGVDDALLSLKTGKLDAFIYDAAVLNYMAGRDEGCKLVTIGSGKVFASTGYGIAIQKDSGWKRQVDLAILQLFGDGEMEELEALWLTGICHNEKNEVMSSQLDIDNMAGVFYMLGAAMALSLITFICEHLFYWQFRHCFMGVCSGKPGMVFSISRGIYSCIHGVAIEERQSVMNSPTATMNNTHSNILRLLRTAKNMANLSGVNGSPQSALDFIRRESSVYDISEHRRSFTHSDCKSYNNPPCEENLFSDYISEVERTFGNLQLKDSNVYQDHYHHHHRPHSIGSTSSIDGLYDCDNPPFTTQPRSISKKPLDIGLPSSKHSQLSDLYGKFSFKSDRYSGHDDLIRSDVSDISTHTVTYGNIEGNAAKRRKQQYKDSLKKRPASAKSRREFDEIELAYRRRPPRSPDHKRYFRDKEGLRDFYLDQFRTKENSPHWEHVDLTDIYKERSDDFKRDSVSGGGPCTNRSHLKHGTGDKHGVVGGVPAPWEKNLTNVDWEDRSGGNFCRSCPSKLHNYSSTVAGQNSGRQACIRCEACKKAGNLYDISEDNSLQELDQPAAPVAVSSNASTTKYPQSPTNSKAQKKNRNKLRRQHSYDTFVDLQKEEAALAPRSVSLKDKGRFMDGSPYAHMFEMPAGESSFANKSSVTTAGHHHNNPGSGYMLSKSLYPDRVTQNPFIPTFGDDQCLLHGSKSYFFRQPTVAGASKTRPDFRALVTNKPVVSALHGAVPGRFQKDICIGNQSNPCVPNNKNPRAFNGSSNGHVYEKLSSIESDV

Data set [7] concerns the target Glutamate receptor ionotropic, NMDA 2B (Rattus norvegicus) (UniProt Q00960). Nature of the data set: Antagonist activity at NMDA receptor GluN2B subunit in Wistar rat CA1 pyramidal neurons assessed as decrease in EPSC amplitude at holding potential of -60 mV at 100 nM measured at 5 mins by patch clamp electrophysiological assay in presence of Mg2+ free ACSF containing CNQX, glycine, bicuculline relative to control. The data set is classed as functional, cell-based. Set-up: scale not given: the % may be the effect or the level left. Conditions: Pyramidal neuron.

In data set [8] the target is Glutamate receptor ionotropic, NMDA 2B (Mus musculus) (UniProt Q01097). Nature of the data set: Antagonist activity at NMDA receptor GluN2B subunit in FVB mouse CA1 pyramidal neurons assessed as decrease in EPSC amplitude at holding potential of -60 mV at 100 nM measured at 5 mins by patch clamp electrophysiological assay in presence of Mg2+ free ACSF containing CNQX, glycine, bicuculline relative to control. The data set is classed as functional, cell-based. Set-up: scale not given: the % may be the effect or the level left. To be noted: Pyramidal neuron.

SMILES strings stand for the structures.

Sequence of Glutamate receptor ionotropic, NMDA 2B (Rattus norvegicus) (Q00960 27-1482 limits assumed): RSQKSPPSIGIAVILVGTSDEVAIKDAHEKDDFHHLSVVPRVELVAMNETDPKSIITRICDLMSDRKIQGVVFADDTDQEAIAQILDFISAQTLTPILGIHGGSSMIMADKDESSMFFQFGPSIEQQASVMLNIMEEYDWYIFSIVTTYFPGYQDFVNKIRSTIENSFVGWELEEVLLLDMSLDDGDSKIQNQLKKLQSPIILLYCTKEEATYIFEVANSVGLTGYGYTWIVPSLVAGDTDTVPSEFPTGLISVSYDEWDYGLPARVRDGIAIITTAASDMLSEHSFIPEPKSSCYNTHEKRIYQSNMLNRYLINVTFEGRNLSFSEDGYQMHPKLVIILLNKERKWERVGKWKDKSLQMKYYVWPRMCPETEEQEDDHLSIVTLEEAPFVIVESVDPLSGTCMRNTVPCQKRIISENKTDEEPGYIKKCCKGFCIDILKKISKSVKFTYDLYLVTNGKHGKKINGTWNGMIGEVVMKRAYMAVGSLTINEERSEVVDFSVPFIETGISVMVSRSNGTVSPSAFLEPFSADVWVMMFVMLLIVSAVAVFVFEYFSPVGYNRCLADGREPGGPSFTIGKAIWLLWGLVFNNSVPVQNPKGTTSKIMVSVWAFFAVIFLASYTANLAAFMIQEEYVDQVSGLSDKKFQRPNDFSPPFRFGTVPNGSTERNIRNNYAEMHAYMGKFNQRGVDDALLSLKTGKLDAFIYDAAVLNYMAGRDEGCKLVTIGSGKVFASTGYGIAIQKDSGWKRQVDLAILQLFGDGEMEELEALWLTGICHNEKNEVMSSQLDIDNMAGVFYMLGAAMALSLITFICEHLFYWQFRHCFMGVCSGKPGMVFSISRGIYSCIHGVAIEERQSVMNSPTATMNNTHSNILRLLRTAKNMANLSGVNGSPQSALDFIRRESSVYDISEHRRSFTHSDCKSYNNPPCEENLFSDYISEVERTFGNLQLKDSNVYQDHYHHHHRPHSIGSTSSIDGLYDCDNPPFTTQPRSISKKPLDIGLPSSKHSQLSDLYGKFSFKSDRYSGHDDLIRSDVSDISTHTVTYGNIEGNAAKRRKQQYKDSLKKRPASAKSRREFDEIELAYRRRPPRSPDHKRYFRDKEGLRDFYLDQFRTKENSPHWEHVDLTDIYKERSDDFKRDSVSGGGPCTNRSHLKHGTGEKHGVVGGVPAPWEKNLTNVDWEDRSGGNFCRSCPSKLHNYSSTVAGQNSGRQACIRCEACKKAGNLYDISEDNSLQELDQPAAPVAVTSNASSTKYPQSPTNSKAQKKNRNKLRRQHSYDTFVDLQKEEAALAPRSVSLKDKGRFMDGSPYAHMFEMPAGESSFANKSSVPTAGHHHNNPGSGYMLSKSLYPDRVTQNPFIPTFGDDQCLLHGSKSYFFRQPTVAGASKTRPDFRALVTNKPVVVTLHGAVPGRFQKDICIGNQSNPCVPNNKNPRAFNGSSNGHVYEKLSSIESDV

For the molecule `C[C@@H](CN1CCC(Cc2ccccc2)CC1)[C@@H](O)c1ccc(O)cc1`, in data set [1], the Activity came to 29%. Further, it took 17 nM to reach half-maximal inhibition in data set [2] (IC50). For the molecule `Nc1ccc2c(C(=O)CN3CCC(Cc4ccccc4)CC3)c[nH]c2c1`, the IC50 in data set [3] was 2270 nM. In turn, `O=C(CN1CCC(Cc2ccccc2)CC1)c1c[nH]c2cc(O)ccc12` gave a pKa in data set [4] of 9.63. Regarding `Nc1ccc2[nH]cc(C(=O)CN3CCC(Cc4ccccc4)CC3)c2c1`, the IC50 in data set [3] amounted to 1180 nM. In data set [3], `CS(=O)(=O)Nc1ccc2c(C(=O)C(=O)N3CCC(Cc4ccccc4)CC3)c[nH]c2c1` displayed an IC50 of 63 nM.

The molecule `CS(=O)(=O)Nc1ccc2[nH]cc(C(=O)C(=O)N3CCC(Cc4ccccc4)CC3)c2c1` returned an inhibition in data set [5] of 42%. On to `N[C@H](CCCP(=O)(O)O)C(=O)O`, for which the Activity in data set [6] is 28%. As for `CS(=O)(=O)Nc1ccc2[nH]cc(C(=O)CN3CCC(Cc4ccccc4)CC3)c2c1`, the IC50 in data set [3] stood at 320 nM. Regarding `CS(=O)(=O)Nc1ccc2c(C(=O)CN3CCC(Cc4ccccc4)CC3)c[nH]c2c1`, the Activity amounted to 50% in data set [7] and 23.3% in data set [8]. This molecule also gave an IC50 in data set [3] of 8.9 nM. The pKa in data set [4] was found to be 9.97. For the molecule `Nc1ccc2c(C(=O)C(=O)N3CCC(Cc4ccccc4)CC3)c[nH]c2c1`, the inhibition in data set [5] turned out to be 32%. `Nc1ccc2[nH]cc(C(=O)C(=O)N3CCC(Cc4ccccc4)CC3)c2c1` returned an inhibition in data set [5] of 40%.

Usually IC50 stands for the concentration at which inhibition is half-maximal. As a reminder, the pKa is the negative logarithm of the acid dissociation constant. What is called inhibition is how much of the control response was suppressed.
